PubChem BioAssay AID330 (DTP/NCI, 2004)
Several values for one entry are separate records, joined by “and”; a condition that tells them apart may be missing. Equal values may be shown once. Toxic doses and inconclusive results are not listed. The calls were made as follows: active = survival T/C of 150% or more; inactive = T/C below 125% in these data.

Tested on: P388 leukemia ip, CD2F1 mice, survival T/C
Test: NCI In Vivo Anticancer Drug Screen. Data for tumor model P388 Leukemia (intraperitoneal) in CD2F1 (CDF1) mice
Conditions: endpoint: median survival time, higher = longer survival
Procedure, shortened: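 Mice carrying the transplanted tumor received test compound or vehicle. Survival was recorded in each group, and the value is the treated-group measurement divided by that of the vehicle-treated control group.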

[1] = dose: 100.0 mg/kg/injection, schedule: Q01DX009 (ip), vehicle: suspension in saline
[2] = dose: 200.0 mg/kg/injection, schedule: Q01DX009 (ip), vehicle: suspension in saline
[3] = dose: 50.0 mg/kg/injection, schedule: Q01DX005 (ip), vehicle: saline with Tween-80
[4] = dose: 100.0 mg/kg/injection, schedule: Q01DX005 (ip), vehicle: saline with Tween-80
[5] = dose: 100.0 mg/kg/injection, schedule: Q01DX009 (ip), vehicle: saline
[6] = dose: 200.0 mg/kg/injection, schedule: Q01DX009 (ip), vehicle: saline
[7] = dose: 60.0 mg/kg/injection, schedule: Q01DX005 (ip), vehicle: saline with Tween-80
[8] = dose: 120.0 mg/kg/injection, schedule: Q01DX005 (ip), vehicle: saline with Tween-80
[9] = dose: 240.0 mg/kg/injection, schedule: Q01DX005 (ip), vehicle: saline with Tween-80
[10] = dose: 50.0 mg/kg/injection, schedule: Q01DX005 (ip), vehicle: Klucel (hydroxypropylcellulose) (HPC)
[11] = dose: 100.0 mg/kg/injection, schedule: Q01DX005 (ip), vehicle: Klucel (hydroxypropylcellulose) (HPC)
[12] = dose: 200.0 mg/kg/injection, schedule: Q01DX005 (ip), vehicle: Klucel (hydroxypropylcellulose) (HPC)
[13] = dose: 200.0 mg/kg/injection, schedule: Q01DX005 (ip), vehicle: saline with Tween-80

Measured: T/C

CC(C)(C#CC(C)(C)OC(=O)Nc1ccccc1)OC(=O)Nc1ccccc1
inactive: [1] 95 % of control | [2] 97 % of control | dose: 400.0 mg/kg/injection, schedule: Q01DX009 (ip), vehicle: suspension in saline 107 % of control

COc1cc(/C=N/O)c(SC)cc1OC
inactive: dose: 100.0 mg/kg/injection, schedule: Q04DX002 (ip), vehicle: Klucel (hydroxypropylcellulose) (HPC) 110 % of control | dose: 200.0 mg/kg/injection, schedule: Q04DX002 (ip), vehicle: Klucel (hydroxypropylcellulose) (HPC) 111 % of control

FC(F)(F)c1cccc(N(c2nc(Cl)nc(Cl)n2)c2nc(Cl)nc(Cl)n2)c1
inactive: dose: 50.0 mg/kg/injection, schedule: Q01DX009 (ip), vehicle: suspension in saline 94 % of control | [1] 92 % of control | [2] 91 % of control

COC1OC2COc3ccccc3OC2C(NC(N)=S)C1OC (configuration not stated)
inactive: dose: 60.0 mg/kg/injection, schedule: Q01DX005 (ip), vehicle: Klucel (hydroxypropylcellulose) (HPC) 105 % of control | dose: 120.0 mg/kg/injection, schedule: Q01DX005 (ip), vehicle: Klucel (hydroxypropylcellulose) (HPC) 105 % of control | dose: 240.0 mg/kg/injection, schedule: Q01DX005 (ip), vehicle: Klucel (hydroxypropylcellulose) (HPC) 105 % of control

COc1ccc(Cc2cc(C(C)(C)C)cc(C(C)(C)C)c2O)cc1
inactive: dose: 50.0 mg/kg/injection, schedule: Q01DX005 (ip), vehicle: distilled water + alcohol 96 % of control | dose: 100.0 mg/kg/injection, schedule: Q01DX005 (ip), vehicle: distilled water + alcohol 96 % of control | dose: 200.0 mg/kg/injection, schedule: Q01DX005 (ip), vehicle: distilled water + alcohol 95 % of control

CC(=O)NC1=NN(C(C)=O)C(c2ccccc2)S1=O (configuration not stated)
inactive: [3] 108 % of control | [4] 107 % of control

N#C/C(=N\NC(=O)c1ccccc1Cl)c1ccccc1Cl
inactive: [3] 97 % of control | [4] 106 % of control

CN1C(=O)NC2(C1=O)C(=O)N(C)C(=O)N2C (configuration not stated)
inactive: dose: 50.0 mg/kg/injection, schedule: Q01DX009 (ip), vehicle: saline 91 % of control | [5] 92 % of control | [6] 95 % of control

CC[C@H](C)C(NC(=O)[C@H]1N=C(c2csc(C(O)Cc3ccccc3)n2)OC1C)C(=O)OC (some centres not stated)
inactive: [7] 99 % of control | [8] 98 % of control | [9] 100 % of control

O=c1[nH]c(=O)c2nc3cc(Cl)ccc3nc2[nH]1
inactive: [10] 116 % of control | [11] 104 % of control | [12] 99 % of control

CC1(C)OC2C(COC(=O)c3ccccc3)OC(n3cnc4c(=NC(=O)c5ccccc5)n(C(=O)c5ccccc5)cnc43)C2O1 (configuration not stated)
inactive: [10] 94 % of control | [11] 94 % of control

COc1cccc2c1C(CCCC(=O)O)CCC2 (configuration not stated)
inactive: [10] 101 % of control | [11] 104 % of control | [12] 104 % of control

CCCCCCC1(/C=C/c2ccc(Cl)cc2Cl)OCCCO1
inactive: dose: 50.0 mg/kg/injection, schedule: Q01DX009 (ip), vehicle: saline + alcohol 94 % of control | dose: 100.0 mg/kg/injection, schedule: Q01DX009 (ip), vehicle: saline + alcohol 97 % of control | dose: 200.0 mg/kg/injection, schedule: Q01DX009 (ip), vehicle: saline + alcohol 97 % of control

COC(=O)c1c[nH]c(=S)n1C
inactive: dose: 100.0 mg/kg/injection, schedule: Q04DX002 (ip), vehicle: saline 98 % of control | dose: 200.0 mg/kg/injection, schedule: Q04DX002 (ip), vehicle: saline 100 % of control | dose: 400.0 mg/kg/injection, schedule: Q04DX002 (ip), vehicle: saline 105 % of control

CN(CCN1C(=O)c2cccc3cccc(c23)C1=O)CCN1C(=O)c2cccc3cccc(c23)C1=O
inactive: [3] 95 % of control | [7] 95 % of control | [4] 87 % of control | [13] 91 % of control | [9] 88 % of control

COc1ccc(NC(=S)C#N)cc1
inactive: dose: 15.0 mg/kg/injection, schedule: Q01DX005 (ip), vehicle: saline with Tween-80 99 % of control | dose: 30.0 mg/kg/injection, schedule: Q01DX005 (ip), vehicle: saline with Tween-80 99 % of control | [7] 99 % of control and 117 % of control

O=C(Nc1cc(Cl)c([N+](=O)[O-])cc1O)c1ccco1
inactive: dose: 50.0 mg/kg/injection, schedule: Q01DX009 (ip), vehicle: Klucel (hydroxypropylcellulose) (HPC) 106 % of control | dose: 100.0 mg/kg/injection, schedule: Q01DX009 (ip), vehicle: Klucel (hydroxypropylcellulose) (HPC) 99 % of control | dose: 200.0 mg/kg/injection, schedule: Q01DX009 (ip), vehicle: Klucel (hydroxypropylcellulose) (HPC) 98 % of control

C[Si](C)(C)CNC(=S)S
inactive: [7] 113 % of control | [8] 115 % of control | [9] 112 % of control

C/C(N=NC(=S)N1CCCCCC1)=C1\C=CC=CN1O
inactive: [3] 106 % of control | [4] 108 % of control | [13] 110 % of control

N#CC1=C(O)/C(=C\c2ccc(Cl)c(Cl)c2)N=C1N
inactive: [3] 89 % of control | [4] 90 % of control | [13] 97 % of control

Cc1ncn[nH]1
inactive: [5] 103 % of control | [6] 106 % of control | dose: 400.0 mg/kg/injection, schedule: Q01DX009 (ip), vehicle: saline 100 % of control

CN(C)CCOc1cccc2c1CCC2
inactive: [7] 107 % of control | [8] 87 % of control

ClCCn1c(CCl)nc2ccc(Cl)cc21
inactive: dose: 3.12 mg/kg/injection, schedule: Q01DX009 (ip), vehicle: Klucel (hydroxypropylcellulose) (HPC) 93 % of control | dose: 6.25 mg/kg/injection, schedule: Q01DX009 (ip), vehicle: Klucel (hydroxypropylcellulose) (HPC) 101 % of control | dose: 12.5 mg/kg/injection, schedule: Q01DX009 (ip), vehicle: Klucel (hydroxypropylcellulose) (HPC) 100 % of control | dose: 25.0 mg/kg/injection, schedule: Q01DX009 (ip), vehicle: Klucel (hydroxypropylcellulose) (HPC) 100 % of control

CCCCCCCC[N+]1(CC)CCCC1
inactive: dose: 3.12 mg/kg/injection, schedule: Q01DX009 (ip), vehicle: saline 95 % of control | dose: 6.25 mg/kg/injection, schedule: Q01DX009 (ip), vehicle: saline 95 % of control | dose: 12.5 mg/kg/injection, schedule: Q01DX009 (ip), vehicle: saline 96 % of control

O=CC(O)C(O)C(O)C(O)CO (configuration not stated)
inactive: dose: 12.5 mg/kg/injection, schedule: Q04DX003 (ip), vehicle: saline 108 % of control | dose: 25.0 mg/kg/injection, schedule: Q04DX003 (ip), vehicle: saline 100 % of control | dose: 50.0 mg/kg/injection, schedule: Q04DX003 (ip), vehicle: saline 108 % of control | dose: 60.0 mg/kg/injection, schedule: Q01DX005 (ip), vehicle: saline 103 % of control | dose: 120.0 mg/kg/injection, schedule: Q01DX005 (ip), vehicle: saline 105 % of control | dose: 240.0 mg/kg/injection, schedule: Q01DX005 (ip), vehicle: saline 102 % of control | dose: 1.0 % in 0.5 ml injection vol, schedule: Q01DX009 (ip), vehicle: water 100 % of control | dose: 2.0 % in 0.5 ml injection vol, schedule: Q01DX009 (ip), vehicle: water 103 % of control | dose: 4.0 % in 0.5 ml injection vol, schedule: Q01DX009 (ip), vehicle: water 101 % of control | dose: 8.0 % in 0.5 ml injection vol, schedule: Q01DX009 (ip), vehicle: water 100 % of control and 105 % of control | dose: 16.0 % in 0.5 ml injection vol, schedule: Q01DX009 (ip), vehicle: water 103 % of control and 112 % of control | dose: 32.0 % in 0.5 ml injection vol, schedule: Q01DX009 (ip), vehicle: water 98 % of control and 99 % of control
